{
  "source": "patent US11753410B2",
  "about": "“Hormone receptor modulators for treating metabolic mutagenic and fibrotic conditions and disorders” (priority 2017, dated 2023)",
  "key": {"[1]": {"molecular_target": "T1, ligand binding domain of human FXR (Homo sapiens, UniProt Q96RI1)", "T1 construct": "purchased Thermofisher (LanthaScreen) PV4833", "T1 sequence (Q96RI1 262-486 limits assumed)": "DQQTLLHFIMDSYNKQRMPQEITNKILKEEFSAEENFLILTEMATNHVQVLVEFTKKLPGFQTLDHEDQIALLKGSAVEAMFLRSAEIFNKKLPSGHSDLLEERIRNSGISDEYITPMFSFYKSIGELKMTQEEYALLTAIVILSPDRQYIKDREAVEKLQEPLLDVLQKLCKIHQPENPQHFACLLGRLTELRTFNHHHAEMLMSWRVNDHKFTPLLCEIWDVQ", "assay": "biochemical", "settings": "for Emax: extent of activation relative to GW4064, read-out: Ligand Binding % Efficacy; for EC50: −log EC50, concentration required to produce 50% activation, FRET 520 nm/495 nm, 1 hour at room temperature, read-out: Ligand Binding pEC50 (converted)"}, "[2]": {"molecular_target": "T2, human Farnesoid X receptor ligand-binding domain/Gal4 DNA binding domain chimera (Homo sapiens, UniProt Q96RI1)", "T2 construct": "host or cells: FXR-UAS-bla HEK 293T (CellSensor UAS-bla HEK 293T)", "T2 sequence (Q96RI1 262-486 limits assumed)": "T1 sequence (Q96RI1 262-486 limits assumed)", "assay": "Cell-based assay of FXR activation (FXR-UAS-bla HEK 293T beta-lactamase reporter)", "settings": "for Emax: HEK-293T, read-out: Cellular % Efficacy", "procedure": "FXR activation was measured using a cell line and procedure obtained from Life Technologies (Cat #K1691). […] Activation of FXR by bound ligands results in transcriptional activation of the beta-lactamase reporter gene, which is detected via assay of beta-lactamase activity.\nCells are harvested and diluted into assay medium containing phenol red-free DMEM supplemented with 2% Charcoal-stripped FBS, pyruvate, non-essential amino acids. Cells are then transferred to a 384 well assay plate. Test compounds are dissolved in DMSO and a 3-fold serial dilution series is generated, then further diluted into assay medium. Compounds in assay medium are added to cells in the 384 well plate and allowed to incubate 16 h at 37 C in the presence of 5% CO2.\nA FRET-based […] (CCF4) is loaded into cells as its acetomethoxy ester. Intracellular esterases liberate free CCF4, a cephalosporin core linking 7-hydroxycoumarin to fluorescein. In the presence of beta-lactamase activity produced in the presence of FXR agonists, cleavage of CCF4 spatially separates the two dyes and disrupts FRET, so that exciting the coumarin at 409 nm now produces a blue fluorescence signal at 447 nm. The change in FRET signal is plotted against the test compound concentration and fit to a 3-parameter logistical equation."}},
  "data": [
    {"smiles": "O=C(O)c1cc(C2CCCC2)c2nc(N3C[C@@H]4C[C@H]3C[C@H]4OCc3c(-c4c(Cl)cccc4Cl)nnn3C3CC3)sc2c1", "note": "[Compound I-69, 4-cyclopentyl-2-[(1S,4S,5R)-5-{[1-cyclopropyl-4-(2,6-dichlorophenyl)-1H-1,2,3-triazol-5-yl]methoxy}-2-azabicyclo[2.2.1]heptan-2-yl]-1,3-benzothiazole-6-carboxylic acid]", "values": [
      {"measurement": "Emax", "setting": "[1]", "value": 168, "unit": "%"},
      {"measurement": "EC50", "setting": "[1]", "value": 0.00631, "unit": "µM"},
      {"measurement": "EC50", "setting": "[2]", "value": 0.00251, "unit": "µM"},
      {"measurement": "Emax", "setting": "[2]", "value": 111, "unit": "%"}
    ]},
    {"smiles": "O=C(O)c1ccc(N2C[C@@H]3C[C@H]2C[C@H]3OCc2c(-c3c(Cl)cccc3Cl)nnn2C2CC2)cc1", "note": "[Compound I-70, 4-[(1S,4S,5R)-5-{[1-cyclopropyl-4-(2,6-dichlorophenyl)-1H-1,2,3-triazol-5-yl]methoxy}-2-azabicyclo[2.2.1]heptan-2-yl]benzoic acid]", "values": [
      {"measurement": "Emax", "setting": "[1]", "value": 155, "unit": "%"},
      {"measurement": "EC50", "setting": "[1]", "value": 0.0631, "unit": "µM"},
      {"measurement": "EC50", "setting": "[2]", "value": 0.0398, "unit": "µM"},
      {"measurement": "Emax", "setting": "[2]", "value": 106, "unit": "%"}
    ]}
  ]
}
